Experimental data reported in ChEMBL document CHEMBL1131647, “Enzymatic synthesis of a modified phospholipid and its evaluation as a substrate for B. cereus phospholipase C” (Bioorg Med Chem Lett, 1998).

What was measured:
[1] = test system: Phospholipase C (Bacillus cereus); experiment: Compound was evaluated for its […] activity against phospholipase C from Bacillus cereus
[2] = test system: Phospholipase C (Bacillus cereus); experiment: Critical Micellar Concentration for the compound was calculated for phospholipase C from Bacillus cereus

| CMC [2] [mM] | SMILES | k cat [1] [s⁻¹] |
| --- | --- | --- |
| 9.5 | CCCCCC(=O)OCC(COP(=O)(O)OCCC(C)(C)C)OC(=O)CCCCC (stereo not drawn) | 5.2 |
| – | CCCCCC(=O)OCC(COP(=O)([O-])OCC[N+](C)(C)C)OC(=O)CCCCC (stereo not drawn) | 1000 |
